According to patent US20180110754A1, “CENICRIVIROC FOR THE TREATMENT OF FIBROSIS” (Tobira Therapeutics, Inc., priority 2015, published 2018):
Values joined by “and” are separate entries in the source; they are usually repeats but may differ in a detail not shown here. Equal entries are not always repeated.

Legend:
[1] = biological target: CCR1 (Homo sapiens, UniProt P32246); experiment: Inhibition of ligand binding to CCR1
[2] = system: STAM mouse model of Non-alcoholic Steatohepatitis; experiment: STAM mouse model of NASH, week 9 (anti-NASH/fibrosis effects); type: in vivo
Procedure: NASH was induced in male mice by a single injection of 200 μg streptozotocin 2 days after birth (causing impaired glucose control), followed by a high fat diet from 4 weeks of age. […] Animals were sacrificed at 9 weeks of age, and biochemical, gene expression, and histologic evaluations of the liver were conducted.

[3] = CVC-high 100 mg/kg/day, week 9, listed as Cenicriviroc
[4] = CVC-low 20 mg/kg/day, week 9, listed as Cenicriviroc

CCR1, sequence (P32246 whole entry): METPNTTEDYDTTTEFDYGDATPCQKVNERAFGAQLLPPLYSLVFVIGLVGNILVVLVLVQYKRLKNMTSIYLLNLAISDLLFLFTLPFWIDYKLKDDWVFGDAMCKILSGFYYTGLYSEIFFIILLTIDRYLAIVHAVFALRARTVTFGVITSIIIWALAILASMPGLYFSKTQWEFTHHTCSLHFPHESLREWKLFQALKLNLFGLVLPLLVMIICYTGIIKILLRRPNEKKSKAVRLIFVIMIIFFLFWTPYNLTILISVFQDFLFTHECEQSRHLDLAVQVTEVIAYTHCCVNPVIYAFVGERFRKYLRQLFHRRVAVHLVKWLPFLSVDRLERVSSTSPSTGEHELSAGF

## CCCCOCCOc1ccc(-c2ccc3c(c2)/C=C(/C(=O)Nc2ccc([S@@+]([O-])Cc4cncn4CCC)cc2)CCCN3CC(C)C)cc1 [CVC, (S)-8-[4-(2-Butoxyethoxy)phenyl]-1-isobutyl-N-(4-{[(1-propyl-1H-imidazol-5-yl)methyl]sulfinyl}phenyl)-1,2,3,4-tetrahydro-1-benzazocine-5-carboxamide]
[1]
  Inhibition of ligand binding to CCR1: did not inhibit
[2]; 20 and 100 mg/kg/day, week 9
  Effect on body or liver weight, whole blood glucose, or liver triglycerides: no effect
[2]; CVC 20 and 100 mg/kg/day, week 9
  Decrease of collagen type 1 mRNA in whole liver lysates (real-time RT-PCR): 27-37%
[2]; CVC-high 100 mg/kg/day, week 9
  Body weight: 18.7 ± 0.9 g
  F4/80-positive area (inflammation area): 4.96±0.60%
  F4/80 and CD16/32-positive cells: 41.5±8.2%
  F4/80 and CD206-positive cells: 33.1±3.0%
  Liver hydroxyproline: 0.62±0.09 μg/mg total protein
  Liver triglyceride: 51.7±14.1 mg/g liver
  Liver weight: 1307 ± 119 mg
  NAFLD Activity Score (NAS): 3.7±0.8
  Oil red-positive area (fat deposition area): 7.23±3.59%
  Plasma ALT: 51±13 U/L and 52±13 U/L
  Plasma MCP-1: 91 ± 14 pg/mL
  Plasma MIP-1β: 20 ± 4 pg/mL
  TUNEL-positive cells: 39.0±5.3%
  Whole blood glucose: 585 ± 91 mg/dL
[2]; [3]
  Body weight: 18.7 ± 0.9 g
  F4/80-positive area (inflammation area): 4.96 ± 0.60%
  F4/80 and CD16/32-positive cells: 41.5 ± 8.2%
  F4/80 and CD206-positive cells: 33.1 ± 3.0%
  Liver hydroxyproline: 0.62 ± 0.09 μg/mg total protein
  Liver triglyceride: 51.7 ± 14.1 mg/g liver
  Liver weight: 1307 ± 119 mg
  NAFLD Activity Score (NAS): 3.7 ± 0.8
  Oil red-positive area (fat deposition area): 7.23 ± 3.59%
  Plasma ALT: 52 ± 13 U/L
  Plasma MCP-1: 91 ± 14 pg/mL
  Plasma MIP-1β: 20 ± 4 pg/mL
  TUNEL-positive cells: 39.0 ± 5.3%
  Whole blood glucose: 585 ± 91 mg/dL
[2]; CVC-high 100 mg/kg/day, week 9, perivascular space included, listed as Cenicriviroc
  Sirius red-positive area (fibrosis area): 0.64 ± 0.19%
[2]; CVC-high 100 mg/kg/day, week 9, perivascular space subtracted, listed as Cenicriviroc
  Modified Sirius red-positive area: 0.20 ± 0.06%
[2]; CVC-high, Sirius red, mice 301-306 (raw data), listed as Cenicriviroc
  Modified positive area (%), per mouse: 0.12% and 0.26% and 0.17% and 0.27% and 0.18% and 0.20%
[2]; CVC-high, Sirius red, mice 301-306, photos 1-5 (raw data), listed as Cenicriviroc
  Modified positive area (%), individual photo: 0.17% (2×) and 0.28% (2×) and 0.22% (2×) and 0.08% (3×) and 0.05% and 0.09% (2×) and 0.32% and 0.07% (3×) and 0.16% and 0.20% (2×) and 0.68% and 0.23% (2×) and 0.27% and 0.12% and 0.11% and 0.67% and 0.26% and 0.06% and 0.10% and 0.41%
[2]; CVC-high, week 9, n=6
  Number of animals with Hepatocyte ballooning score 0: 1
  Number of animals with Hepatocyte ballooning score 1: 2
  Number of animals with Hepatocyte ballooning score 2: 3
  Number of animals with Lobular inflammation score 1: 3
  Number of animals with Lobular inflammation score 2: 3
  Number of animals with Steatosis score 1: 5
[2]; CVC-low 20 mg/kg/day, week 9
  Body weight: 19.5 ± 2.0 g
  F4/80-positive area (inflammation area): 4.77±1.02%
  F4/80 and CD16/32-positive cells: 38.7±7.6%
  F4/80 and CD206-positive cells: 34.7±6.3%
  Liver hydroxyproline: 0.63±0.05 μg/mg total protein
  Liver triglyceride: 48.5±16.1 mg/g liver
  Liver weight: 1334 ± 99 mg
  NAFLD Activity Score (NAS): 4.0±0.6
  Oil red-positive area (fat deposition area): 6.51±3.88%
  Plasma ALT: 58±12 U/L
  Plasma MCP-1: 68 ± 16 pg/mL
  Plasma MIP-1β: 18 ± 2 pg/mL
  TUNEL-positive cells: 43.3±2.9%
  Whole blood glucose: 585 ± 91 mg/dL
[2]; [4]
  Body weight: 19.5 ± 2.0 g
  F4/80-positive area (inflammation area): 4.77 ± 1.02%
